Data set [1] deals with Liver microsome. Put plainly: Drug level in human liver microsomes treated with sesamin after 30 mins by HPLC analysis in presence of NADPH. The data set is classed as ADME. The settings on record: 0.5 h. For orientation: Microsomes from liver hold many membrane-bound enzymes, among them those of drug oxidation.
The target of data set [2] is T1, Cytochrome P450 2C19 (Homo sapiens, UniProt P33261). Put plainly: Activity of recombinant human CYP2C19 expressed in Saccharomyces cerevisiae AH22 cells assessed as enzyme-mediated sesamin dicatechol formation after 15 mins by HPLC analysis in presence of NADPH. The data set is classed as ADME, cell-based. The settings on record: ah22, 0.25 h.
Data set [3] deals with Cytochrome P450 2C9 (Homo sapiens, UniProt P11712). Put plainly: Activity of recombinant human CYP2C9 expressed in Saccharomyces cerevisiae AH22 cells assessed as enzyme-mediated sesamin dicatechol formation after 15 mins by HPLC analysis in presence of NADPH. Type of data set: ADME, cell-based. The settings on record: ah22, 0.25 h.
For data set [4], the target named is T1, Cytochrome P450 2C19. Put plainly: Activity of recombinant human CYP2C19 expressed in Saccharomyces cerevisiae AH22 cells assessed as enzyme-mediated compound formation treated with sesamin at 2 to 20 uM after 15 mins by HPLC analysis in presence of NADPH. Type of data set: ADME, cell-based. The note with it: ah22, 0.25 h.
In data set [5] the test system is CYP450. Put plainly: Drug metabolism in human liver microsomes assessed as CYP450-mediated catecholization after 10 to 30 mins by HPLC analysis in presence of NADPH. The data set is classed as ADME.
Data set [6] has as its system UGT. Kind of data set: Drug metabolism in human liver microsomes assessed as UGT-mediated glucuronidation after 10 to 30 mins by HPLC analysis in presence of UDP-GlcUA. Type of data set: ADME.
The nature of data set [7]: Drug metabolism in human liver microsomes assessed as UGT-mediated glucuronidation per mg of protein after 10 to 30 mins by HPLC analysis in presence of UDP-GlcUA. Type of data set: ADME.
A short description of data set [8]: Drug metabolism in human liver microsomes assessed as CYP450-mediated catecholization per mg of protein after 10 to 30 mins by HPLC analysis in presence of NADPH. The data set is classed as ADME.
Data set [9] relates to CYP450. Put plainly: Drug metabolism in Sprague-Dawley rat liver microsomes assessed as CYP450-mediated catecholization after 10 to 30 mins by HPLC analysis in presence of NADPH. The data set is classed as ADME.
A short description of data set [10]: Drug metabolism in Sprague-Dawley rat liver microsomes assessed as CYP450-mediated catecholization per mg of protein after 10 to 30 mins by HPLC analysis in presence of NADPH. The data set is classed as ADME.
Data set [11] can be described thus: Drug metabolism in Sprague-Dawley rat liver microsomes assessed as UGT-mediated glucuronidation per mg of protein after 10 to 30 mins by HPLC analysis in presence of UDP-GlcUA. Type of data set: ADME.
For data set [12], the system named is UGT. Put plainly: Drug metabolism in Sprague-Dawley rat liver microsomes assessed as UGT-mediated glucuronidation after 10 to 30 mins by HPLC analysis in presence of UDP-GlcUA. The data set is classed as ADME.

T1 sequence (P33261 whole entry): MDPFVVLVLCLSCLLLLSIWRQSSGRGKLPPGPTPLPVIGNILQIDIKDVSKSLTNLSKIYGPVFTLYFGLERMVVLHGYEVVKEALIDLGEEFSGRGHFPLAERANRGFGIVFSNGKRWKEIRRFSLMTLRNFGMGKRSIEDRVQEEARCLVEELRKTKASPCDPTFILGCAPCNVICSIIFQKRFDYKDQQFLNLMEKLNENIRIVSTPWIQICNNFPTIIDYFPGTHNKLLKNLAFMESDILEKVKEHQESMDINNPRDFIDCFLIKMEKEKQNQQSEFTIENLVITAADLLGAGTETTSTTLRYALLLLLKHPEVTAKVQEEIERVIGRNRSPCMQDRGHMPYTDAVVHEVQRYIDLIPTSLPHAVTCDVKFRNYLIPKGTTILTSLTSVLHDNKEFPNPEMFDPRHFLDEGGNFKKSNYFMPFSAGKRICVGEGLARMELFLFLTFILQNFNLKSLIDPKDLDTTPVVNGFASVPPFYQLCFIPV
Sequence of Cytochrome P450 2C9 (P11712 whole entry): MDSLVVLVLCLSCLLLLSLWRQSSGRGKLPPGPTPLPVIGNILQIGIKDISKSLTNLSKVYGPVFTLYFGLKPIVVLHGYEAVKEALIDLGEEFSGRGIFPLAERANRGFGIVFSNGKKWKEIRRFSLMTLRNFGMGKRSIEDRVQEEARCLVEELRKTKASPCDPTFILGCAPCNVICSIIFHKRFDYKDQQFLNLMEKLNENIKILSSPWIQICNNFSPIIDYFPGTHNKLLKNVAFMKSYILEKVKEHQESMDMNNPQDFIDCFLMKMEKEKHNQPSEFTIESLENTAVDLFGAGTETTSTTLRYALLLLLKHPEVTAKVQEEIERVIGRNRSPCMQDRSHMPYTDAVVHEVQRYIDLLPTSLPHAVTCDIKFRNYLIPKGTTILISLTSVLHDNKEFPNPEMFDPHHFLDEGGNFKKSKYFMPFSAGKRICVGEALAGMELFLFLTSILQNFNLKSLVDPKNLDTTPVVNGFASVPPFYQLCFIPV

The Km is the substrate concentration at which the rate is half of its maximum. In general, Vmax refers to the rate approached at saturating substrate. In the case of `Oc1ccc([C@H]2OC[C@H]3[C@@H]2CO[C@@H]3c2ccc3c(c2)OCO3)cc1O`, the Drug metabolism result is reported as “metabolite_detected” in data set [1], 10.4 nmol/min in data set [2], 0.83 nmol/min in data set [3] and “metabolite_detected” in data set [4]. In addition, the Km in [5] was 18.8 µM; in [6], 18 µM; in [9], 5.3 µM; in data set [12], 20.3 µM. In addition, the Vmax stood at 6 nmol/min/mg in [7], 0.44 nmol/min/mg in data set [8], 3.7 nmol/min/mg in [10] and 1.1 nmol/min/mg in data set [11].

Source of the values: ChEMBL document CHEMBL3525932, “Comparison of metabolism of sesamin and episesamin by drug-metabolizing enzymes in human liver” (Drug Metab Dispos, 2012).
